Earlier results as cited in patent US20150190345A1, “Controlled Release Formulations of Lorazepam” (priority 2014, published 2015).

Legend:
[1] = according to the package insert

O=C1Nc2ccc(Cl)cc2C(c2ccccc2Cl)=NC1O (centres unmarked) [Lorazepam, 7-chloro-5-(2-chlorophenyl)-1,3-dihydro-3-hydroxy-2H-1,4-benzodiazepin-2-one]
half-life in human plasma [1]: about 12 hours | solubility in water: almost insoluble in water
